Measurements published in ChEMBL document CHEMBL1144609, “N-Hydroxythiosemicarbazones: synthesis and in vitro antitubercular activity” (Bioorg Med Chem Lett, 2007).
Converted amounts (≈) assume the structure as drawn.

Columns and labels:
[1] = system: Mycobacterium tuberculosis; test: Antimycobacterial activity against Mycobacterium tuberculosis H37Rv by agar dilution method; type: functional
Vero = test: Cytotoxicity against Vero cells after 72 hrs by MTT assay; type: cell-based; details: Chlorocebus sabaeus
[2] = Selectivity index, ratio of IC50 for Vero cells to MIC for Mycobacterium tuberculosis H37Rv; type: functional

| Structure (SMILES) | MIC [1] | IC50 (Vero) | Selectivity index [2] |
| --- | --- | --- | --- |
| CN(C)c1ccc(/C=N/NC(=S)NO)cc1 | 52.5 µM (≈ 12.5 µg/mL) |  |  |
| COc1ccc(/C=N/NC(=S)NO)cc1 | 14.9 µM (≈ 3.37 µg/mL) |  |  |
| Cc1ccc(/C=N/NC(=S)NO)cc1 | 13 µM (≈ 2.71 µg/mL) |  |  |
| ONC(=S)N/N=C/c1ccc(Cl)cc1 | 13 µM (≈ 2.99 µg/mL) |  |  |
| ONC(=S)N/N=C/c1ccccc1O | 29.6 µM (≈ 6.25 µg/mL) |  |  |
| O=[N+]([O-])c1ccc(/C=N/NC(=S)NO)cc1 | 6.49 µM (≈ 1.56 µg/mL) | > 260 µM |  |
| C/C(=N\NC(=S)NO)c1ccccc1 | 14.9 µM (≈ 3.13 µg/mL) |  |  |
| C/C(=N\NC(=S)NO)c1ccc(C)cc1 | 6.98 µM (≈ 1.56 µg/mL) | > 280 µM |  |
| C/C(=N\NC(=S)NO)c1ccc(Cl)cc1 | 3.2 µM (≈ 0.78 µg/mL) | > 256 µM |  |
| C/C(=N\NC(=S)NO)c1ccc([N+](=O)[O-])cc1 | 0.78 µM (≈ 0.198 µg/mL) | > 246 µM |  |
| ONC(=S)N/N=C(\c1ccccc1)c1ccc(Br)cc1 | 0.28 µM (≈ 0.0981 µg/mL) | > 178 µM | >625 |
| O=C1Nc2ccc(F)cc2/C1=N/NC(=S)NO | 24.6 µM (≈ 6.25 µg/mL) |  |  |
| COc1cc(/C=N/NC(=S)NO)ccc1O | 27.2 µM (≈ 6.57 µg/mL) |  |  |
| ONC(=S)N/N=C/c1ccccc1 | 64 µM (≈ 12.5 µg/mL) |  |  |
| ONC(=S)N/N=C/c1ccc(O)cc1 | 29.6 µM (≈ 6.25 µg/mL) |  |  |
| O=[N+]([O-])c1ccccc1/C=N/NC(=S)NO | 6.49 µM (≈ 1.56 µg/mL) | > 260 µM |  |
| C/C(=N\NC(=S)NO)c1ccccc1O | 13.9 µM (≈ 3.13 µg/mL) |  |  |
| O=C1Nc2ccccc2/C1=N/NC(=S)NO | 64 µM (≈ 15.1 µg/mL) |  |  |
| CC[C@@H](CO)NCCN[C@@H](CC)CO [ETHAMBUTOL] | 15.3 µM (≈ 3.13 µg/mL) | > 306 µM |  |
| NNC(=O)c1ccncc1 [ISONIAZID] | 0.72 µM (≈ 0.0987 µg/mL) | > 456 µM |  |
| CO[C@H]1/C=C/O[C@@]2(C)Oc3c(C)c(O)c4c(O)c(c(/C=N/N5CCN(C)CC5)c(O)c4c3C2=O)NC(=O)/C(C)=C\C=C\[C@H](C)[C@H](O)[C@@H](C)[C@@H](O)[C@@H](C)[C@H](OC(C)=O)[C@@H]1C [RIFAMPIN] | 0.24 µM (≈ 0.198 µg/mL) | > 75.9 µM |  |
